Results taken from patent US7432403B2, “Cyclic palladium compounds having coordinated thereto bis (diphenylphosphine) ferrocene ligands which inhibit the activity of proteins and enzymes and treatment of diseases and disorders associated therewith” (Fundação De Amparo À Pesquisa Do Estado de São Paulo, priority 2002, dated 2008).
Read-outs that look alike come from different tables or passages of the source.

Columns and labels:
[1] = Evaluation of acute toxicity, fixed dosage test, 14-day observation; type: in vivo, mice; conditions: one dose intraperitoneally
Description: The concentration of cyclopalladated compounds of the invention as used in this study is being determined from the realization of a fixed dosage test, in which the substance to be tested is given to mice under specific dosage, which is selected from previously fixed dosages, according to classifications from ruling institutions, for which the maximum concentration to be tested should not surpass 2000 mg/kg.
After drug administration, a 14-day observation period follows. The dosage under which signs of acute toxicity are observed, such as changes in hair, mucosa and skin, as well as the occurrence of diarrhea and convulsions, conjunctivitis, excitement or slow movements, is used to graduate or classify the tested material.
Assayed compounds are diluted in saline containing 10% DMSO and then 0.2 ml of that solution are intraperitoneally given to the animals. Therefore, groups of 10 animals (5 males and 5 females) were treated with various doses of the compounds being studied. The control animals received only saline with 10% DMSO. After the end of the treatment, the animals remained in observation for a period of 14 days.

Ehrlich's ascitic tumor = experiment: Life extension of animals with Ehrlich's ascitic tumor; type: in vivo, mice; conditions: 1 mg/kg subcutaneously, four consecutive days, start 72 hours after inoculation
Source text: With the purpose to observe a possible protection of treated animals with the compounds of the invention, a life extension curve was drafted, considering animals with the Ehrlich's ascitic tumor, be them treated or not.
The Life Extension Curve of Kaplan-Meier was used to analyse the possibility of survival. The comparison between both groups (holders of tumor vs. holders of tumor/treated) was made by the Log-Rank method—non-parametrical procedures (Cox-Mantel). ANOVA variation analysis was used for the analysis of various groups. In case of significant difference, the Tukey's test was applied. In cases in which the number of samples between two groups was small, the Wilcoxon's non-parametrical test was used.
To develop the Ehrlich's ascitic tumor, mice are intraperitoneally inoculated with 0.1 ml of a suspension of tumor cells containing 10^6 cells, originating from the peritoneal cavity of holder mice. After taking out the ascitic liquid from the peritoneum of mice holding the tumor of Ehrlich, the number and viability of cells are determined by using trypan blue colorant in a Neubauer chamber.
With the purpose to observe possible protection of treated animals with the compounds [Pd2(C^2,N-S-dmpa)2(μ-dpp)Cl2] e [Pd2(C^2,N-S-dmpa)2(μ-dppf)(N3)2] (as per scheme C shown in generic structures), a life extension curve was made. […]

HL60 cells = experiment: Morphological aspect of treated HL60 cells; type: cell-based; conditions: 72 hours
Source text: From the results obtained by experiments as illustrated by Example 11, we verified cytotoxic activity of the cyclopalladated compounds in both studied lines, with results obtained from the two compounds being similar (FIGS. 10 and 11). […] On the other hand, the morphological aspect of leukemic cells HL60 treated with cyclopalladated compounds is that of cells in scheduled cell death process or apoptosis, as illustrated by FIG. 12.

ACE = target: T1, ACE (Mus musculus, UniProt P09470); conditions: administration one hour after radiation; cited from earlier work
T1 construct: host or cells: mouse plasma, in vivo
T1 sequence (P09470 35-1312): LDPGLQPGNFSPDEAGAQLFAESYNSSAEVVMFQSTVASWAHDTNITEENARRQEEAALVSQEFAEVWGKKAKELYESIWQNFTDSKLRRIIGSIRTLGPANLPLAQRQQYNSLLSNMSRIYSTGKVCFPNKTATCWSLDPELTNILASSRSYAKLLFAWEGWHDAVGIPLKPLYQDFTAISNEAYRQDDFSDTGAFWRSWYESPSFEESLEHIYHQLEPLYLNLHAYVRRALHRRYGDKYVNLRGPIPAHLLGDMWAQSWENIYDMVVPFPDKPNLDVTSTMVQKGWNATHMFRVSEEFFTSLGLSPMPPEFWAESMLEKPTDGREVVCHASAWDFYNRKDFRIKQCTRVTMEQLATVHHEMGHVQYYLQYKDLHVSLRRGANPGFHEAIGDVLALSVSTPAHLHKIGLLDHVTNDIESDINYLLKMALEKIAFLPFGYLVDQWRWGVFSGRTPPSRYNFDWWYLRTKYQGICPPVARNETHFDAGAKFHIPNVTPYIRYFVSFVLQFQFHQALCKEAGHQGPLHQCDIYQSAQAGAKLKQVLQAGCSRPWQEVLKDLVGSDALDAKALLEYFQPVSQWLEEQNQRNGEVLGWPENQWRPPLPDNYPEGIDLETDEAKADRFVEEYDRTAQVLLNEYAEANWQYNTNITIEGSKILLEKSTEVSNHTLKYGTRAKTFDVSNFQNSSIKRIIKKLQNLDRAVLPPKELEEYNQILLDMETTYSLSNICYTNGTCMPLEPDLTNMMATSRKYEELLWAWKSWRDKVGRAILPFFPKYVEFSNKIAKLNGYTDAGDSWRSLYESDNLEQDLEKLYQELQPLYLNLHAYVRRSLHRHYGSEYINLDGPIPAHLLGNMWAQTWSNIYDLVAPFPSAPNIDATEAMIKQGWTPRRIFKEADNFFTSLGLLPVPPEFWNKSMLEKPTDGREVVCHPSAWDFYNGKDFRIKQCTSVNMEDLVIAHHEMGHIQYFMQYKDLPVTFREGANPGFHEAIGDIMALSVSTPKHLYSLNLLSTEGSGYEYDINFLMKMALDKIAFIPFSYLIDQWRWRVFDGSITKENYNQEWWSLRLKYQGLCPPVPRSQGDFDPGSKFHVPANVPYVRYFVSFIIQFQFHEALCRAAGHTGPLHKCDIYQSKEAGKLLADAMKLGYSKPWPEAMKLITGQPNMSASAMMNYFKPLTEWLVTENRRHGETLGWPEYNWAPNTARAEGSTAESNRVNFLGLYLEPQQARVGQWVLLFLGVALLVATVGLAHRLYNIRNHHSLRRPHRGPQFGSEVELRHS

Cathepsin B = target: T2, Cathepsin B (Homo sapiens, UniProt P07858); experiment: Cathepsin B endopeptidase activity, hydrolysis of fluorogenic substrate Z-Phe-Arg-MCA (spectrofluorimetry); type: biochemical; conditions: for Ki: pH 6.4, 37° C., substrate Z-Phe-Arg-MCA
T2 construct: purchased Calbiochem Co
Description: Cathepsin B and papain were supplied by the company Calbiochem Co. and the concentration of active enzymes was determined by titulation using the cysteine-protease inhibitor known as E-64. Cathepsin B and papain were packed at 4° C. within 50 mM in sodium acetate buffer (pH 5.0) containing 10 μM MMTS. The fluorogenic substrate amidomethylcoumaryl Z-Phe-Arg-MCA, tripsin and the irreversible papain inhibitor E-64 were supplied by Sigma.
The influence of the organometal compounds on the activity of endopeptidase cathepsin B was determined by spectrofluorimetry, using the fluorogenic substrate Z-Phe-Arg-MCA. This peptide is a good substrate for cathepsin B with kcat/Ks=4.5 10^5 M^−1.s^−1 and was chosen so to locate residues Phe and Arg in P2 and P1, respectively. The substrate covers the main linkage sites S2, S1 and S′1 with cysteine-proteases similar to papain (Turk, D. et al, Revised definition of substrate binding sites of papain-like cysteine proteases, J. Biol. Chem.; 1998, 379, 137-147).
The intensities of fluorescence signals were monitored by a thermostatic spectrofluorimetry Hitachi F-2000. Wavelength was calibrated at 380 nm for excitation and 440 nm for emission. The activation of the enzyme was made by incubation for five minutes at 37° C. in a buffer solution of 50 mM sodium phosphate (pH 6.4) containing NaCl 200 mM, EDTA 1 mM and DTT 2 mM. Measurements were taken in the same activation buffer of cathepsin B and kynetic standards were set up by taking the initial hydrolysis rate under various concentrations of the substrate in the presence or absence of different concentrations of organometal compounds. The results were analysed by non-linear regression by using the software GraFit 3.01 (Erithacus Software Ltd.).
The Kynetic model of Scheme 1 describes the effect of heparin over the hydrolysis of Z-Phe-Arg-MCA by cathepsin B:
In which S represents the substrate Z-Phe-Arg-MCA; I represents the cyclometal compound; E represents cathepsin B; KS represents the dissociation constant of the substrate; KI represents the apparent dissociation constant of the organometal; α is a disturbance standard of KS; and β is a disturbance standard of Vmax (kcat), with the standards being in accordance to the equation: […]
Data were treated according to Equation 1, by using non-linear regression and the values for the constants were calculated. […] The hydrolysis rate of the second order substrates was the same, kcat/Ks=4.5 10^5 M^−1s^−1, in the presence or absence of [Pd (C^2,N-(R+dmpa)(dppf)]N3.

Compound: C[C@H]1c2cccc[c]2[Pd-2]([Cl])([P+](c2ccccc2)(c2ccccc2)[c-]2cccc2)[N+]1(C)C.C[C@H]1c2cccc[c]2[Pd-2]([Cl])([P+](c2ccccc2)(c2ccccc2)[c-]2cccc2)[N+]1(C)C.[Fe+2] (stereo partly drawn) [4a, [Pd2(C^2,N-S-dmpa)2(μ-dppf)Cl2]]
- Signs and symptoms ([1]; 500 mg/kg): Lack of acute toxicity signs

Compound: C[C@@H]1c2cccc[c]2[Pd-2]([Cl])([P+](c2ccccc2)(c2ccccc2)[c-]2cccc2)[N+]1(C)C.C[C@@H]1c2cccc[c]2[Pd-2]([Cl])([P+](c2ccccc2)(c2ccccc2)[c-]2cccc2)[N+]1(C)C.[Fe+2] (stereo partly drawn) [4b, [Pd2(C^2,N-R+ dmpa)2(μ-dppf)Cl2]]
- Signs and symptoms ([1]; 10 mg/kg, listed as R(^+)dmpa Cl^− dppf (1:1), 10 mg/kg): Signs of conjunctivitis

Compound: C[C@H]1c2cccc[c]2[Pd-2]([Cl])([P+](c2ccccc2)(c2ccccc2)[c-]2cccc2)[N+]1(C)C.[Fe+2].c1ccc(P(c2ccccc2)[c-]2cccc2)cc1 (stereo partly drawn) [[Pd(C^2,N-(S-dmpa)(dppf)Cl]]
- life extension of animals holding the ascitic tumor of Ehrlich (Ehrlich's ascitic tumor): increased the life extension
- morphological aspect of treated HL60 cells (HL60 cells): aspects of an apoptosis cell

Compound: NCCCC[C@H](N[C@@H](CCc1ccccc1)C(=O)O)C(=O)N1CCC[C@H]1C(=O)O [lisinopryl]
- inhibition of murine plasma activity for ACE (ACE): 100%

Compound: [Pd(C^2,N-(R+dmpa)(dppf)]N3 [2a]
- inhibition of Cathepsin B (Cathepsin B): 81%
- product formation constant reduced to (Cathepsin B): 36
- reduction of kcat in the presence of the compound (Cathepsin B): 5.6 times
- α (disturbance standard of KS) (Cathepsin B): 0.19±0.02
- β (disturbance standard of Vmax, kcat) (Cathepsin B): 0.18±0.02
- β/α (Cathepsin B): 1.1±0.1
- increase of the affinity between Cathepsin B and the substrate Z-Phe-Arg-MCA (Cathepsin B; in the presence of the compound): 5.3 time
- Ki (Cathepsin B; read-out: dissociation constant KH, compound linked to free Cathepsin B (E)): 12 ± 1 µM
- Ki (Cathepsin B; read-out: dissociation constant αKH, compound linked to the enzyme-substrate (ES) complex): 2.4 ± 0.3 µM
- Ks value in the presence of the organometal compound (Cathepsin B; reduced from 110±15 without compound): 21 ± 2 µM
